Data taken from PubChem BioAssay AID493064 (Broad Institute, 2011).
Where “and” joins values, the source holds several entries; their conditions need not be identical. Equal values may be shown once. Inconclusive results are not listed. Calls of active or inactive are those of the source. No rule for the calls is given here.

Test system: not listed separately
Assay: PubChem AID 493064
Conditions: C. albicans CaCi-8 + fluconazole, Alamar Blue growth, 48 h; at 26 µM (top of the series)
In the case of `CC(C)C(=O)N1CCN(c2ccccn2)CC1`, the activity change, negative = inhibition is reported as -2.77% (inactive). For `CCCCC(=O)N1CCN(c2ccccn2)CC1`, the activity change, negative = inhibition was -12.5% (inactive). For `COC(=O)Cn1c(-c2ccccc2)nc2ccccc21`, the activity change, negative = inhibition was -13.8% (inactive). With `O=C(Cn1c2ccc(F)cc2c2nc3n(c(=O)c21)CCS3)N1CCCCC1` the activity change, negative = inhibition was 8.36% (inactive). In the case of `CCOC(=O)c1c2ccccc2nn1Cc1ccc(Cl)cc1`, the activity change, negative = inhibition is reported as 5.94% (inactive). For `O=C(c1cccc(Cl)c1)N1CCN(c2ccccn2)CC1`, the activity change, negative = inhibition was -1.33% (inactive). In the case of `CCN(CC)C(=O)Cn1c2ccccc2c2nc3n(c(=O)c21)CCS3`, the activity change, negative = inhibition is reported as 8.8% (inactive) and 7.89% (inactive). For `COC(=O)Cn1nc(C)c2ccccc21`, the activity change, negative = inhibition was -17.2% (inactive). With `O=C(c1ccc(Cl)cc1)N1CCN(c2cccc(C(F)(F)F)n2)CC1` the activity change, negative = inhibition was -8.21% (inactive). In the case of `O=C(Cn1nc(-c2ccccc2)c2ccccc21)NCc1ccc(Cl)cc1`, the activity change, negative = inhibition is reported as -6.6% (inactive). With `O=C(O)Cn1nc(-c2ccccc2)c2ccccc21` the activity change, negative = inhibition was -17.8% (inactive). For `Cc1ccnc(N2CCN(C(=O)c3ccc(Cl)cc3)CC2)c1`, the activity change, negative = inhibition was -6.71% (inactive). In the case of `O=C(Cn1nc(C(=O)N2CCCCC2)c2ccccc21)N1CCOCC1`, the activity change, negative = inhibition is reported as -1.16% (inactive).

Test system: C. albicans CaCi-8 + fluconazole, Alamar Blue growth, 48 h
Assay: PubChem AID 493064
Conditions: not given
In the case of `N#Cc1ccc(N2CCN(C(=O)c3ccc(Cl)cc3)CC2)nc1`, the AC50 is reported as > 26 µM (inactive). With `COc1ccc(C(=O)N2CCN(c3ccccn3)CC2)cc1` the AC50 was 7.53 µM. Compound `CC1CCN(C(=O)Cn2c3ccccc3c3nc4n(c(=O)c32)CCS4)CC1` has an AC50 of 8.88 µM. For `O=C(O)c1nn(Cc2ccc(Cl)cc2)c2ccccc12`, the AC50 was > 26 µM (inactive). Compound `COC(=O)Cn1nc(-c2ccccc2)c2ccccc21` has an AC50 of 3.13 µM. Compound `O=C(c1ccc(Cl)cc1)N1CCN(c2nc3ccccc3s2)CC1` has an AC50 of 4.94 µM. In the case of `O=C(Cn1nc(-c2ccccc2)c2cc(Cl)ccc21)N1CCOCC1`, the AC50 is reported as > 26 µM (inactive).
